Values joined by “and” are separate entries in the source; they are usually repeats but may differ in a detail not shown here. Equal entries are not always repeated.
Legend:
[1] = tested on: S. aureus ATCC 6538; experiment: Test 2 (DGHM), growth inhibition by dilutions, 72 hours at 37° C.; type: cell-based, Staphylococcus aureus
Protocol: (§1) Another test was carried out a basis of the following solutions • 100 ml of a 0.1% solution of chlorohexidine digluconate (pH 6); and • 100 ml of a 0.1% solution of Bardac22®.
(§2) The activity of these solutions, alone or in combination, was more particularly tested in respect of Staphylococcus aureus ATCC 6538, Escherichia coli ATCC 11229 and Candida albicans ATCC 10231.
(§3) The tests were conducted in accordance with the procedure described in Chapter I/2.1 and 2.2 of Tichtlinien für die Prüfung und Bewertung chemischer Desinfektionsverfahren der DGHM/Guidelines for Testing and Evaluating Chemical Disinfection Processes of DGHM as at 1.1, 1981.
(§4) Tables IX, X and XI respectively illustrate the bactericidal and fungicidal activity of a 0.1% aqueous solution of chlorohexidine digluconate, a 0.1% aqueous solution of Bardac22® and a mixture of equal parts of both compounds. The procedures of which these Tables illustrate the results comprise incubation of 72 hours at 37° C. and the use of the following inactivating substances as controls: • A: 3% Tween®80+0.3% lecithin+0.1% cysteine • B: 3% Tween®80+3% saponin+0.1% cysteine+0.1% histidine; • C: 3% Tween®80+0.3% lecithin+0.1% histidine+0.5% sodium thiosulphate.
(§5) In these Tables, the sign “+” indicates an increase and the sign “−” denotes the absence of growth.

[2] = tested on: E. coli ATCC 11229; experiment: as above; type: cell-based, Escherichia coli
Protocol: as §1, §2, §3, §4, §5

[3] = tested on: C. albicans ATCC 1031; experiment: Test 2 (DGHM), action as a function of disinfection time at 22° C., 8 × 10^7 organisms/ml; type: cell-based, Candida albicans
Protocol: as §1, §2, §3

[4] = tested on: spermatozoids; experiment: Spermicidal action, vitality by eosine-nigrosine, 100 spermatozoids examined; type: cell-based, human (healthy volunteers)
Protocol: The various samples of sperm (one drop of sperm per sample) are obtained from healthy volunteers.
One drop of sperm is treated by eosine-nigrosine. A smear is then prepared and 100 spermatozoids examined with a microscope. The dead cells are coloured red, either totally or partially. The living cells are colourless.
The substances studied were Bardac® and chlorohexidine digluconate, tested alone and in association in accordance with the invention. The various stages of the procedure are set out in Tables XV to XVII.
The maximum contact time of the various substances and of the sperm was confined to 3 minutes in order to guarantee the effectiveness of the method under the conditions of use. The concentration of the active solutions in the sperm was limited to 10% in order to reduce the risks of toxicity of the products in respect of the mucosa.

[5] = tested on: erythrocytes in heparinized bovine blood; experiment: In-vitro hemolysis of erythrocytes in heparinized whole blood, absorbance at 413 nm; settings: 1 hour at 37° C.
Protocol: The effect of the compounds on the in-vitro hemolysis of erythrocytes in heparinized whole blood is monitored by a spectrophotometric method.
Various formulations and concentrations of the test compound are added to heparinized bovine blood and mixed gently in a 1.5 ml microcentrifuge tube. The sample is allowed to incubate for 1 hour at 37° C. At the end of incubation, the samples are removed from the incubator and centrifuged at 2000 rpm for 5 minutes. A 200 μl aliquot of the supernatant is removed from each sample into a 96 well microtiter plate and read at 413 nm. The absorbance of the test sample is compared to the control sample containing phosphate buffered saline, pH 7.2.

[6] = 0.00625% vol/vol, inactivator A
[7] = 0.00625% vol/vol, inactivator B
[8] = 0.00625% vol/vol, inactivator C
[9] = 0.00625% vol/vol, no inactivator
[10] = 0.0125% vol/vol, no inactivator

CCCCCCCCCC[N+](C)(C)CCCCCCCCCC.[Cl-] [Bardac ®, didecyl dimethyl ammonium chloride]
concentration of active substance inhibiting growth [1]: 0.0001% | dilution of the 0.1% solution inhibiting growth [1]: 0.1% | growth [1, 6]: + | growth [1, 7]: + | growth [1, 8]: + | growth [1, 9]: + | growth ([1]; 0.0125% vol/vol, inactivator A): + | growth ([1]; 0.0125% vol/vol, inactivator B): + | growth ([1]; 0.0125% vol/vol, inactivator C): + | growth [1, 10]: + | growth ([1]; 0.025% vol/vol, inactivator A): + | growth ([1]; 0.025% vol/vol, inactivator B): + | growth ([1]; 0.025% vol/vol, inactivator C): + | growth ([1]; 0.025% vol/vol, no inactivator): + | growth ([1]; 0.05% vol/vol, inactivator A): + | growth ([1]; 0.05% vol/vol, inactivator B): + | growth ([1]; 0.05% vol/vol, inactivator C): + | growth ([1]; 0.05% vol/vol, no inactivator): + | growth ([1]; 0.1% vol/vol, inactivator A): + | growth ([1]; 0.1% vol/vol, inactivator B): + | growth ([1]; 0.1% vol/vol, inactivator C): + | growth ([1]; 0.1% vol/vol, no inactivator): − | growth ([1]; 0.5% vol/vol, inactivator A): + | growth ([1]; 0.5% vol/vol, inactivator B): + | growth ([1]; 0.5% vol/vol, inactivator C): + | growth ([1]; 0.5% vol/vol, no inactivator): − | growth ([1]; 1.0% vol/vol, inactivator A): + | growth ([1]; 1.0% vol/vol, inactivator B): + | growth ([1]; 1.0% vol/vol, inactivator C): + | growth ([1]; 1.0% vol/vol, no inactivator): − | concentration of active substance inhibiting growth [2]: 0.0005% | dilution of the 0.1% solution inhibiting growth [2]: 0.5% | growth [2, 6]: + | growth [2, 7]: + | growth [2, 8]: + | growth [2, 9]: + | growth ([2]; 0.0125% vol/vol, inactivator A): + | growth ([2]; 0.0125% vol/vol, inactivator B): + | growth ([2]; 0.0125% vol/vol, inactivator C): + | growth [2, 10]: + | growth ([2]; 0.025% vol/vol, inactivator A): + | growth ([2]; 0.025% vol/vol, inactivator B): + | growth ([2]; 0.025% vol/vol, inactivator C): + | growth ([2]; 0.025% vol/vol, no inactivator): + | growth ([2]; 0.05% vol/vol, inactivator A): + | growth ([2]; 0.05% vol/vol, inactivator B): + | growth ([2]; 0.05% vol/vol, inactivator C): + | growth ([2]; 0.05% vol/vol, no inactivator): + | growth ([2]; 0.1% vol/vol, inactivator A): + | growth ([2]; 0.1% vol/vol, inactivator B): + | growth ([2]; 0.1% vol/vol, inactivator C): + | growth ([2]; 0.1% vol/vol, no inactivator): + | growth ([2]; 0.5% vol/vol, inactivator A): + | growth ([2]; 0.5% vol/vol, inactivator B): + | growth ([2]; 0.5% vol/vol, inactivator C): + | growth ([2]; 0.5% vol/vol, no inactivator): − | growth ([2]; 1.0% vol/vol, inactivator A): + | growth ([2]; 1.0% vol/vol, inactivator B): + | growth ([2]; 1.0% vol/vol, inactivator C): + | growth ([2]; 1.0% vol/vol, no inactivator): − | growth ([3]; 0.05% vol/vol, 1 min): + | growth ([3]; 0.05% vol/vol, 3 min): + | growth ([3]; 0.05% vol/vol, 5 min): + | growth ([3]; 0.05% vol/vol, 15 min): + | growth ([3]; 0.05% vol/vol, 30 min): + | growth ([3]; 0.05% vol/vol, 60 min): + | growth ([3]; 0.1% vol/vol, 1 min): + | growth ([3]; 0.1% vol/vol, 3 min): + | growth ([3]; 0.1% vol/vol, 5 min): + | growth ([3]; 0.1% vol/vol, 15 min): + | growth ([3]; 0.1% vol/vol, 30 min): + | growth ([3]; 0.1% vol/vol, 60 min): + | growth ([3]; 0.5% vol/vol, 1 min): + | growth ([3]; 0.5% vol/vol, 3 min): + | growth ([3]; 0.5% vol/vol, 5 min): + | growth ([3]; 0.5% vol/vol, 15 min): + | growth ([3]; 0.5% vol/vol, 30 min): + | growth ([3]; 0.5% vol/vol, 60 min): + | growth ([3]; 1% vol/vol, 1 min): + | growth ([3]; 1% vol/vol, 3 min): + | growth ([3]; 1% vol/vol, 5 min): + | growth ([3]; 1% vol/vol, 15 min): + | growth ([3]; 1% vol/vol, 30 min): − | growth ([3]; 1% vol/vol, 60 min): − | growth ([3]; 5% vol/vol, 1 min): + | growth ([3]; 5% vol/vol, 3 min): + | growth ([3]; 5% vol/vol, 5 min): − | growth ([3]; 5% vol/vol, 15 min): − | growth ([3]; 5% vol/vol, 30 min): − | growth ([3]; 5% vol/vol, 60 min): − | growth ([3]; 10% vol/vol, 1 min): − | growth ([3]; 10% vol/vol, 3 min): − | growth ([3]; 10% vol/vol, 5 min): − | growth ([3]; 10% vol/vol, 15 min): − | growth ([3]; 10% vol/vol, 30 min): − | growth ([3]; 10% vol/vol, 60 min): − | growth ([3]; 25% vol/vol, 1 min): − | growth ([3]; 25% vol/vol, 3 min): − | growth ([3]; 25% vol/vol, 5 min): − | growth ([3]; 25% vol/vol, 15 min): − | growth ([3]; 25% vol/vol, 30 min): − | growth ([3]; 25% vol/vol, 60 min): − | vitality (living spermatozoids) ([4]; Bardac solution 0.4%, contact 1 min, 5% in the sperm): 10.7 ± 7.6 | vitality (living spermatozoids) ([4]; Bardac solution 0.4%, contact 1 min, 10% in the sperm): 5 ± 6.4 | vitality (living spermatozoids) ([4]; Bardac solution 0.4%, contact 3 min, 5% in the sperm): 0.8 ± 1.2 | vitality (living spermatozoids) ([4]; Bardac solution 0.4%, contact 3 min, 10% in the sperm): 0.8 ± 1 | vitality (living spermatozoids) ([4]; Bardac solution 0.6%, contact 1 min, 5% in the sperm): 10.5 ± 9.7 | vitality (living spermatozoids) ([4]; Bardac solution 0.6%, contact 1 min, 10% in the sperm): 9.2 ± 12.9 | vitality (living spermatozoids) ([4]; Bardac solution 0.6%, contact 3 min, 5% in the sperm): 2.2 ± 4.5 | vitality (living spermatozoids) ([4]; Bardac solution 0.6%, contact 3 min, 10% in the sperm): 0.4 ± 0.9 | vitality (living spermatozoids) ([4]; Bardac solution 0.8%, contact 1 min, 5% in the sperm): 9.7 ± 10.2 | vitality (living spermatozoids) ([4]; Bardac solution 0.8%, contact 1 min, 10% in the sperm): 1.8 ± 2.5 | vitality (living spermatozoids) ([4]; Bardac solution 0.8%, contact 3 min, 5% in the sperm): 0 | vitality (living spermatozoids) ([4]; Bardac solution 0.8%, contact 3 min, 10% in the sperm): 0 | vitality (living spermatozoids) ([4]; Bardac solution 1%, contact 1 min, 5% in the sperm): 0 | vitality (living spermatozoids) ([4]; Bardac solution 1%, contact 1 min, 10% in the sperm): 0 | vitality (living spermatozoids) ([4]; Bardac solution 1%, contact 3 min, 5% in the sperm): 0 | vitality (living spermatozoids) ([4]; Bardac solution 1%, contact 3 min, 10% in the sperm): 0 | Concentration at which hemolysis is not observed [5]: 0.001% and 0.0125% and 0.0005%

From patent US7381521B2, “Anti-pathogenic composition useful in blood preservation” (Altachem Pharma Ltd., priority 2001, dated 2008)
